From publication PMC6783830 (Viruses, 2019)
Where two headings read alike, the source gives them in different places.

What was measured:
[1] = biological target: VSV RdRp complex (L and P proteins on N–RNA) (Vesicular stomatitis Indiana virus, UniProt P03523); type: biochemical
[2] = test system: CHPV
[3] = test system: HPIV-3
[4] = test system: HeLa cells
[5] = in vitro; settings: hamster
[6] = in vitro; settings: human
[7] = test system: VSV; test: microbe, parasite or virus in culture; settings: Vesicular stomatitis virus, BHK-21, in Mesocricetus auratus, 24 h, read-out: Anti-VSV Activity IC50 (VSV-induced metabolic shut-down)
[8] = test system: CHPV; test: microbe, parasite or virus in culture; settings: Chandipura virus, BHK-21, in Mesocricetus auratus, 24 h, read-out: Anti-CHPV Activity IC50 (CHPV-induced metabolic shut-down)
[9] = test system: VSV; test: microbe, parasite or virus in culture; settings: Vesicular stomatitis virus, HeLa, in Homo sapiens, 65 h, read-out: Anti-VSV Activity IC50 (VSV-induced metabolic shut-down)
[10] = test system: HPIV-3; test: microbe, parasite or virus in culture; settings: Human respirovirus 3, HeLa, 72 h, read-out: Anti-HPIV-3 activity IC50
[11] = test system: VSV; test: microbe, parasite or virus in culture; type: cell-based; settings: Vesicular stomatitis virus, BHK-21, in Mesocricetus auratus, 24 h, read-out: % Inhibition Metabolic Shut-down (CCK Assay)
[12] = test system: VSV; test: microbe, parasite or virus in culture; type: cell-based; settings: Vesicular stomatitis virus, BHK-21, in Mesocricetus auratus, 24 h, read-out: % Inhibition Nuclear Condensation (Cell Imaging)
[13] = biological target: VSV RNP (Vesicular stomatitis Indiana virus, UniProt P03523); test: biochemical; type: biochemical; settings: for inhibition at 20 µM: read-out: % Inhibition mRNA Synthesis (In vitro Transcription)
Chain of VSV RNP (P03523 whole entry, looked up): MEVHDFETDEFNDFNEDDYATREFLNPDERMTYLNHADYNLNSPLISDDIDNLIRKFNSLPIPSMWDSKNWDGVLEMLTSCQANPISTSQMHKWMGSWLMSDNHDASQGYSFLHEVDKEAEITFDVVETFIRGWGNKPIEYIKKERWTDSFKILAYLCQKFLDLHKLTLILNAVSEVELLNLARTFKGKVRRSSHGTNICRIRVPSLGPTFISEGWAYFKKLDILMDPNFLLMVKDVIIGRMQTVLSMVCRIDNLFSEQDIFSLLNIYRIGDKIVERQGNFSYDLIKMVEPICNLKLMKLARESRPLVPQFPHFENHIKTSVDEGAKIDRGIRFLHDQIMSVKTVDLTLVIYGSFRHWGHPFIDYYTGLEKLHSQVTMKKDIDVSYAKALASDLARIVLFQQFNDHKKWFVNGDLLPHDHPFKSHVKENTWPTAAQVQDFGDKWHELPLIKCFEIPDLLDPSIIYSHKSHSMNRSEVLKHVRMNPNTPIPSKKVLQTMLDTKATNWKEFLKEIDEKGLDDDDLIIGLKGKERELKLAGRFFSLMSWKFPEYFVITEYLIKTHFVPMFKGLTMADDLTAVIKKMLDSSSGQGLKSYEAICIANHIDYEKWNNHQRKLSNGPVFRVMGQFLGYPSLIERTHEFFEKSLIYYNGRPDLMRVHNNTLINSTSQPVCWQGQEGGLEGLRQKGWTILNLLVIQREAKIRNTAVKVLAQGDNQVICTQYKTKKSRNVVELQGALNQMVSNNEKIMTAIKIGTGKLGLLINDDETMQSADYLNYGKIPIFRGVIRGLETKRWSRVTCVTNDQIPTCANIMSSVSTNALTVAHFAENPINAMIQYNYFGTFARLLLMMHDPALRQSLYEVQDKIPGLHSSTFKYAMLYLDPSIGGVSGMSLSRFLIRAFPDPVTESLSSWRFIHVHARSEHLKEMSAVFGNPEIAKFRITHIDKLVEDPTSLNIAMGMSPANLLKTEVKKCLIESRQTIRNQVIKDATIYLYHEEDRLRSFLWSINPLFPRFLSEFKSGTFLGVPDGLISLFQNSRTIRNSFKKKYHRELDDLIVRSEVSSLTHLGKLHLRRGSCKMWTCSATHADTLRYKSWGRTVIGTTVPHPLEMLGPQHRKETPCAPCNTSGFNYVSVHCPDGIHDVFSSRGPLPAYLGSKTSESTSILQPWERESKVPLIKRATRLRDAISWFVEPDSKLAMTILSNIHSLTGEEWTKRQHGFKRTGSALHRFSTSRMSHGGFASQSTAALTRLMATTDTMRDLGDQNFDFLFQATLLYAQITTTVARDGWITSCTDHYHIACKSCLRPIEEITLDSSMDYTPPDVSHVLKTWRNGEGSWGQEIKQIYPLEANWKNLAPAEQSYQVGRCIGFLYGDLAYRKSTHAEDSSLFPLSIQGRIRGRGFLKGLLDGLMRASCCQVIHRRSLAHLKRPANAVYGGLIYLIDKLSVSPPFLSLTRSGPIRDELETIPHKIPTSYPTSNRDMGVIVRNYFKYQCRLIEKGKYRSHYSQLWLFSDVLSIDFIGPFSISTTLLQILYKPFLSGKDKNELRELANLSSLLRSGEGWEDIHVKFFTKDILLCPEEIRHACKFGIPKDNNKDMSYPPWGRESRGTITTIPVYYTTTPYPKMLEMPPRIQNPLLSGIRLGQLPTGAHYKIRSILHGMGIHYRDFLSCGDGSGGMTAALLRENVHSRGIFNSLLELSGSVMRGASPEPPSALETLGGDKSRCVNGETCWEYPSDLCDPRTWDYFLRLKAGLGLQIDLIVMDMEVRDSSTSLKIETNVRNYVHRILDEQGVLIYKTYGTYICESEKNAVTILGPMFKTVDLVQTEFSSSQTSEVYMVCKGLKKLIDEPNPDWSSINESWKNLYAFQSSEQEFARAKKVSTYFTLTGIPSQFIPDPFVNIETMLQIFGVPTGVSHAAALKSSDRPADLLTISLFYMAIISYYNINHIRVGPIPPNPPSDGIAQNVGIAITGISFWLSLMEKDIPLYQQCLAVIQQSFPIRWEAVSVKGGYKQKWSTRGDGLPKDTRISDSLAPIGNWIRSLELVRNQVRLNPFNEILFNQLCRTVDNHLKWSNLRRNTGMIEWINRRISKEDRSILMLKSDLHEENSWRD

[14] = biological target: CHPV RNP (Chandipura virus, UniProt P13179); test: biochemical
[15] = biological target: HPIV-3 RNP (Human parainfluenza 3 virus, UniProt P12577); type: biochemical, Human parainfluenza virus 3; settings: at 10 µM
[16] = biological target: VSV L protein (Vesicular stomatitis Indiana virus, UniProt P03523); test: biochemical; type: biochemical
Chain of VSV L protein (P03523 whole entry, looked up): as above

[17] = biological target: CHPV RdRp (L and P proteins) (Chandipura virus, UniProt P13179); test: biochemical; settings: read-out: inhibition of CHPV AC synthesis
[18] = biological target: VSV L protein (PRNTase domain) (Vesicular stomatitis Indiana virus, UniProt P03523); type: biochemical; settings: at 10 µM
[19] = test system: VSV; type: cell-based, Vesicular stomatitis virus in BHK-21 cells (hamster)
[20] = test system: VSV-AcGFP; type: cell-based, Vesicular stomatitis virus in BHK-21 cells (hamster); settings: 10 µM
[21] = test system: VSV-AcGFP; type: cell-based, Vesicular stomatitis virus in BHK-21 cells (hamster); settings: 10 µM; remark: listed apart in the source
[22] = test system: BHK-21 cells; settings: at 100 µM
[23] = test system: HeLa cells; remark: listed apart in the source
[24] = test system: VSV
[25] = test system: RABV
[26] = test system: NA cells
[27] = test system: RABV; test: microbe, parasite or virus in culture; settings: Lyssavirus rabies, in mouse/rat NG108-15, 48 h, read-out: Anti-RABV activity IC50 (RABV gene expression, luciferase)

O=C(O)CN(CCN(CC(=O)O)CC(=O)O)CC(=O)O [EDTA, reference compound]
synthesis of LeRNA1–18 (pulse) [1]: abolishes

NC(=O)c1ncn([C@@H]2O[C@H](CO)[C@@H](O)[C@H]2O)n1 [Ribavirin, reference compound]
Anti-CHPV Activity SI (CC50/IC50) [2]: <1 | Anti-HPIV-3 activity SI (CC50/IC50) [3]: > 5 | Cytotoxicity CC50 [4]: > 1 0 0 µM | CC50 [5]: 86 ± 0.5 µM | CC50 [6]: > 100 µM | IC50 [7]: > 100 µM | IC50 [8]: > 100 µM | IC50 [9]: 15 ± 1 µM | IC50 [10]: 21 µM

COc1ccc(C2CC(=O)Nc3cc(O)c(C)cc32)cc1Cn1cccn1 (stereo not shown) [VPI A]
inhibition at 17 µM [11]: 105% | inhibition at 17 µM [12]: 98% | IC50 [13]: 0.81 ± 0.04 µM | VSV LeRNA synthesis [13]: represses | inhibition at 20 µM [13]: 99% | IC50 [14]: 3.3 ± 0.4 µM | inhibition of in vitro mRNA synthesis of HPIV-3 [15]: not | AC synthesis with the VSV L and P proteins [16]: inhibit | inhibition at 1 µM ([16]; 1 µM, read-out: inhibition of AC synthesis with the VSV L protein alone): 85% | AC synthesis with the VSV L and P proteins (Figure S4) ([16]; 10 µM): strongest | inhibition at 10 µM ([16]; 10 µM, read-out: inhibition of AC synthesis with the VSV L protein alone): 100% | inhibition at 1 µM ([17]; 1 µM): 77% | inhibition at 10 µM ([17]; 10 µM): 97% | capping activity of the PRNTase domain in the VSV L protein [18]: slightly reduced | concentration that almost completely abolished VSV production [19]: ≥ 12.5 µM | nuclear condensation and AcGFP expression in infected cells [20]: abrogate | synthesis of LeRNA1–18 (pulse) [1]: inhibits | step of VSV infection inhibited (time-of-addition) [21]: inhibits VSV infection at an early post-entry step | cytotoxic effects on BHK-21 cells [22]: little or no cytotoxic effects | Anti-CHPV Activity SI (CC50/IC50) [2]: >13 | IC50 ([2]; read-out: Anti-CHPV Activity IC50 (CHPV-induced metabolic shut-down)): 7.9 ± 0.4 µM | toxicity to HeLa cells [23]: less toxic | VSV-induced cell rounding and detachment [24]: inhibited | IC50 ([24]; read-out: Anti-VSV Activity IC50 (VSV-induced metabolic shut-down)): 0.42 ± 0.02 µM | Anti-RABV activity SI (CC50/IC50) [25]: > 4 | Cytotoxicity CC50 [26]: > 1 0 0 µM | antiviral effects against HPIV-3 [3]: neither of the compounds showed any antiviral effects | Cytotoxicity CC50 [4]: > 1 0 0 µM | CC50 [5]: > 100 µM | CC50 [6]: > 100 µM | IC50 [7]: 2 ± 0.1 µM | IC50 [8]: 8 µM | IC50 [9]: 0.4 µM | IC50 [27]: 26 µM

Cc1cc2c(cc1O)NC(=O)CC2c1cc(C(C)(C)C)[nH]n1 (stereo not shown) [VPI B]
inhibition at 17 µM [11]: 102% | inhibition at 17 µM [12]: 92% | inhibition at 20 µM [13]: 89% | concentration that almost completely abolished VSV production [19]: ≥ 25 µM | nuclear condensation and AcGFP expression in infected cells [20]: abrogate | cytotoxic effects on BHK-21 cells [22]: little or no cytotoxic effects | Anti-CHPV Activity SI (CC50/IC50) [2]: >9 | toxicity to HeLa cells [23]: less toxic | VSV-induced cell rounding and detachment [24]: inhibited | inhibitory effect on RABV gene expression [25]: little or no inhibitory effect | Cytotoxicity CC50 [26]: > 1 0 0 µM | antiviral effects against HPIV-3 [3]: neither of the compounds showed any antiviral effects | Cytotoxicity CC50 [4]: > 1 0 0 µM | CC50 [5]: > 100 µM | CC50 [6]: > 100 µM | IC50 [7]: 6 µM | IC50 [8]: 11 ± 1 µM | IC50 [9]: 1 µM

Cc1cc2c(cc1O)NC(=O)CC2c1c[nH]nc1-c1ccc(F)cc1 (stereo not shown) [VPI C]
inhibition at 17 µM [11]: 58% | inhibition at 17 µM [12]: 63% | inhibition at 20 µM [13]: 72%

Cc1cc2c(cc1O)NC(=O)CC2c1cc2ccccc2n1C (stereo not shown) [VPI D]
inhibition at 17 µM [11]: 55% | inhibition at 17 µM [12]: 57% | inhibition at 20 µM [13]: 72%

COc1cc2c(cc1C1CC(=O)Nc3cc(O)c(C)cc31)CCC2 (stereo not shown) [VPI E]
inhibition at 17 µM [11]: 50% | inhibition at 17 µM [12]: 94% | inhibition at 20 µM [13]: 72%

Cc1cc2c(cc1O)NC(=O)CC2c1ccc(-c2cc[nH]n2)o1 (stereo not shown) [VPI F]
inhibition at 17 µM [11]: 48% | inhibition at 17 µM [12]: 69% | effect on VSV mRNA synthesis, in words ([13]; at 20 µM): weak inhibitory effect | inhibition at 20 µM [13]: 34% | AC synthesis with the VSV L and P proteins (Figure S4) ([16]; 10 µM): weakest

Cc1cc2c(cc1O)NC(=O)CC2c1ccc(Oc2ccccc2)cc1 (stereo not shown) [VPI G]
inhibition at 17 µM [11]: 46% | inhibition at 17 µM [12]: 54% | inhibition at 20 µM [13]: 68%

COc1cc2c(cc1C1CC(=O)Nc3cc(O)c(C)cc31)OCCCO2 (stereo not shown) [VPI H]
inhibition at 17 µM [11]: 34% | inhibition at 17 µM [12]: 53% | inhibition at 20 µM [13]: 73%
